Measured values taken from patent US9850283B2, “Macrocyclic inhibitors of the PD-1/PD-L1 and CD80(B7-1)/PD-L1 protein/protein interactions” (BRISTOL-MYERS SQUIBB COMPANY, priority 2013, dated 2017).
Positions of bridges follow the written chain, without caps; N, C: chain ends. Non-standard residues stand in square brackets, D forms with d. Residues, ends and D or L forms follow the SMILES beside them. Ala(cPr) = N[C@@H](CC1CC1)C(=O)O; Hyp = O=C(O)[C@@H]1C[C@@H](O)CN1; tBuAla = CC(C)(C)C[C@H](N)C(=O)O; Cha = N[C@@H](CC1CCCCC1)C(=O)O; NMeNle = CCCC[C@H](NC)C(=O)O; NMeA = CN[C@@H](C)C(=O)O; Dab = NCC[C@H](N)C(=O)O; Abu = CC[C@H](N)C(=O)O; Dap = NC[C@H](N)C(=O)O; Sar = CNCC(=O)O

Assays:
[1] = biological target: T1, LK35.2-hPD-L1 cells / PE-labeled PD-1-Ig (Homo sapiens, UniProt Q9NZQ7); assay: LK35.2-hPD-L1 cell binding high-content screening assay; type: cell-based; settings: cell binding assay, cell line not given; cluster symbol; read-out: CBA IC50 cluster
T1 construct: expressed in transfected cells; host or cells: LK35.2 mouse B cell line
T1 sequence (Q9NZQ7 19-290): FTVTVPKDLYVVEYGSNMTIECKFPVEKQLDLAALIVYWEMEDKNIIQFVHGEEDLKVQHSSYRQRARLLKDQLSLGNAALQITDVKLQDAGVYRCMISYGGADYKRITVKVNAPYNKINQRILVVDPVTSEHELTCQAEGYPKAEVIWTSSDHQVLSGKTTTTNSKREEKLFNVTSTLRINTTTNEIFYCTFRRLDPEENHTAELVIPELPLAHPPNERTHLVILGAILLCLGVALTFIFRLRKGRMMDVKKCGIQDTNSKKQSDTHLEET
How it was run: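 Mouse LK35.2 B cells stably overexpressing human PD-L1 were cultured overnight in RPMI with 10% FCS, then given compound and PE-labeled human PD-1-Ig (1 nM final) for 1 h at 37 °C. After three dPBS washes, bound fluorescence was quantified by high-content imaging.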

Human PD-L1/PD-1 = biological target: T2, Human PD-L1/PD-1 (Homo sapiens, UniProt Q9NZQ7); assay: HTRF PD-1-Ig/PD-L1-His binding assay (human PD-L1); settings: cluster symbol; read-out: HTRF IC50 cluster
T2 construct: made in house; host or cells: HEK293T
T2 sequence (Q9NZQ7 with tags, fused parts or gaps): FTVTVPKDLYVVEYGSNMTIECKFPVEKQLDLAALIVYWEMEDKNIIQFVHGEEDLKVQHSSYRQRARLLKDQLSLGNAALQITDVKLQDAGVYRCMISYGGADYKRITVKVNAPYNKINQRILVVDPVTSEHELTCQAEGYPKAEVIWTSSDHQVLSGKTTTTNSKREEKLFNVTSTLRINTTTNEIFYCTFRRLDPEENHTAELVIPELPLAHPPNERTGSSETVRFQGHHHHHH
How it was run: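 HTRF read-out: Eu cryptate anti-Ig mAb 1 nM final, APC anti-His mAb 20 nM final, added over the binding reaction. Proteins were PD-1-Ig and PD-L1-His ectodomain fusions. Buffer was dPBS, 0.1% BSA, 0.05% Tween-20.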

SMILES: CCCC[C@H]1C(=O)N(C)[C@@H](CCCC)C(=O)N[C@@H](CC2CCCCC2)C(=O)N[C@H](C(=O)NCC(N)=O)CSCC(=O)N[C@@H](Cc2ccc(O)cc2)C(=O)N(C)[C@@H](C)C(=O)N[C@@H](CC(N)=O)C(=O)N2CCC[C@H]2C(=O)N[C@@H](Cc2c[nH]cn2)C(=O)N[C@@H](CCC(N)=O)C(=O)N2C[C@H](O)C[C@H]2C(=O)N[C@@H](Cc2c[nH]c3ccccc23)C(=O)N[C@@H](CO)C(=O)N[C@@H](Cc2c[nH]c3ccccc23)C(=O)N1C [Example 5077] ({CH2CO}-Y[NMeA]NPHQ[Hyp]WSW[NMeNle][NMeNle][Cha]CG-NH2; thioether N-14)
- IC50 [1]: 0.158 to 4.71 nM
- IC50 (Human PD-L1/PD-1): 6.76 to 30.3 nM

SMILES: CCCC[C@H]1C(=O)N(C)[C@@H](CCCC)C(=O)N[C@@H](CC)C(=O)N[C@H](C(=O)NCC(N)=O)CSCC(=O)N[C@@H](Cc2ccc(O)cc2)C(=O)N(C)[C@@H](C)C(=O)N[C@@H](CC(N)=O)C(=O)N2CCC[C@H]2C(=O)N[C@@H](Cc2c[nH]cn2)C(=O)N[C@@H](CCC(N)=O)C(=O)N2C[C@H](O)C[C@H]2C(=O)N[C@@H](Cc2c[nH]c3ccccc23)C(=O)N[C@@H](CO)C(=O)N[C@@H](Cc2c[nH]c3ccccc23)C(=O)N1C [Example 5078] ({CH2CO}-Y[NMeA]NPHQ[Hyp]WSW[NMeNle][NMeNle][Abu]CG-NH2; thioether N-14)
- IC50 [1]: 0.158 to 4.71 nM
- IC50 (Human PD-L1/PD-1): 0.385 to 6.74 nM

SMILES: CCCC[C@H]1C(=O)N(C)[C@@H](CCCC)C(=O)N[C@@H](CC(C)C)C(=O)N[C@H](C(=O)NCC(N)=O)CSCC(=O)N[C@@H](Cc2ccc(O)cc2)C(=O)N(C)[C@@H](C)C(=O)N[C@@H](CC(N)=O)C(=O)N2CCC[C@H]2C(=O)N[C@@H](Cc2c[nH]cn2)C(=O)N[C@@H](CCC(N)=O)C(=O)N2CCC[C@H]2C(=O)N[C@@H](Cc2c[nH]c3ccccc23)C(=O)N[C@@H](CO)C(=O)N[C@@H](Cc2c[nH]c3ccccc23)C(=O)N1C [Example 5079] ({CH2CO}-Y[NMeA]NPHQPWSW[NMeNle][NMeNle]LCG-NH2; thioether N-14)
- IC50 [1]: 4.78 to 72.9 nM
- IC50 (Human PD-L1/PD-1): 0.385 to 6.74 nM

SMILES: CCCC[C@H]1C(=O)N(C)[C@@H](CCCC)C(=O)N[C@@H](CC2CC2)C(=O)N[C@H](C(=O)NCC(N)=O)CSCC(=O)N[C@@H](Cc2ccc(O)cc2)C(=O)N(C)[C@@H](C)C(=O)N[C@@H](CC(N)=O)C(=O)N2CCC[C@H]2C(=O)N[C@@H](Cc2c[nH]cn2)C(=O)N[C@@H](CCC(N)=O)C(=O)N2C[C@H](O)C[C@H]2C(=O)N[C@@H](Cc2c[nH]c3ccccc23)C(=O)N[C@@H](CO)C(=O)N[C@@H](Cc2c[nH]c3ccccc23)C(=O)N1C [Example 5081] ({CH2CO}-Y[NMeA]NPHQ[Hyp]WSW[NMeNle][NMeNle][Ala(cPr)]CG-NH2; thioether N-14)
- IC50 [1]: 4.78 to 72.9 nM
- IC50 (Human PD-L1/PD-1): 0.385 to 6.74 nM

SMILES: CCCC[C@H]1C(=O)N(C)[C@@H](CCCC)C(=O)N[C@@H](CC(C)C)C(=O)N[C@H](C(=O)NCC(N)=O)CSCC(=O)N[C@@H](Cc2ccc(O)cc2)C(=O)N(C)[C@@H](C)C(=O)N[C@@H](CC(N)=O)C(=O)N2CCC[C@H]2C(=O)N[C@@H](CN)C(=O)N[C@@H](CC2CCCCC2)C(=O)N2C[C@H](O)C[C@H]2C(=O)N[C@@H](Cc2c[nH]c3ccccc23)C(=O)N[C@@H](CO)C(=O)N[C@@H](Cc2c[nH]c3ccccc23)C(=O)N1C [Example 5082] ({CH2CO}-Y[NMeA]NP[Dap][Cha][Hyp]WSW[NMeNle][NMeNle]LCG-NH2; thioether N-14)
- IC50 [1]: 0.158 to 4.71 nM
- IC50 (Human PD-L1/PD-1): 0.385 to 6.74 nM

SMILES: CCCC[C@H]1C(=O)N(C)[C@@H](CCCC)C(=O)N[C@@H](CC(C)C)C(=O)N[C@H](C(=O)NCC(N)=O)CSCC(=O)N[C@@H](Cc2ccc(O)cc2)C(=O)N(C)[C@@H](C)C(=O)N[C@@H](CC(N)=O)C(=O)N2CCC[C@H]2C(=O)N[C@@H](CN)C(=O)N[C@@H](CC(C)(C)C)C(=O)N2C[C@H](O)C[C@H]2C(=O)N[C@@H](Cc2c[nH]c3ccccc23)C(=O)N[C@@H](CO)C(=O)N[C@@H](Cc2c[nH]c3ccccc23)C(=O)N1C [Example 5083] ({CH2CO}-Y[NMeA]NP[Dap][tBuAla][Hyp]WSW[NMeNle][NMeNle]LCG-NH2; thioether N-14)
- IC50 [1]: 0.158 to 4.71 nM
- IC50 (Human PD-L1/PD-1): 0.385 to 6.74 nM

SMILES: CCCC[C@H]1C(=O)N(C)[C@@H](CCCC)C(=O)N[C@@H](CC(C)C)C(=O)N[C@H](C(=O)NCC(N)=O)CSCC(=O)N[C@@H](Cc2ccc(O)cc2)C(=O)N(C)[C@@H](C)C(=O)N[C@@H](CC(N)=O)C(=O)N(C)CC(=O)N[C@@H](Cc2c[nH]cn2)C(=O)N[C@@H](CCC(N)=O)C(=O)N2C[C@H](O)C[C@H]2C(=O)N[C@@H](Cc2c[nH]c3ccccc23)C(=O)N[C@@H](CO)C(=O)N[C@@H](Cc2c[nH]c3ccccc23)C(=O)N1C [Example 5084] ({CH2CO}-Y[NMeA]N[Sar]HQ[Hyp]WSW[NMeNle][NMeNle]LCG-NH2; thioether N-14)
- IC50 [1]: 4.78 to 72.9 nM
- IC50 (Human PD-L1/PD-1): 6.76 to 30.3 nM

SMILES: CCCC[C@H]1C(=O)N(C)[C@@H](CCCC)C(=O)N[C@@H](CCC(=O)O)C(=O)N[C@H](C(=O)NCC(N)=O)CSCC(=O)N[C@@H](Cc2ccc(O)cc2)C(=O)N(C)[C@@H](C)C(=O)N[C@@H](CCN)C(=O)N2CCC[C@H]2C(=O)N[C@@H](CO)C(=O)N[C@@H](CCC(=O)O)C(=O)N2C[C@H](O)C[C@H]2C(=O)N[C@@H](Cc2c[nH]c3ccccc23)C(=O)N[C@@H](CCCCN)C(=O)N[C@@H](Cc2c[nH]c3ccccc23)C(=O)N1C [Example 5085] ({CH2CO}-Y[NMeA][Dab]PSE[Hyp]WKW[NMeNle][NMeNle]ECG-NH2; thioether N-14)
- IC50 [1]: 0.158 to 4.71 nM
- IC50 (Human PD-L1/PD-1): 0.385 to 6.74 nM

SMILES: CCCC[C@H]1C(=O)N(C)[C@@H](CCCC)C(=O)N[C@@H](CCCNC(=N)N)C(=O)N[C@H](C(=O)NCC(N)=O)CSCC(=O)N[C@@H](Cc2ccc(O)cc2)C(=O)N(C)[C@@H](C)C(=O)N[C@@H](CCN)C(=O)N2CCC[C@H]2C(=O)N[C@@H](Cc2c[nH]cn2)C(=O)N[C@@H](CCC(=O)O)C(=O)N2C[C@H](O)C[C@H]2C(=O)N[C@@H](Cc2c[nH]c3ccccc23)C(=O)N[C@@H](CCN)C(=O)N[C@@H](Cc2c[nH]c3ccccc23)C(=O)N1C [Example 5086] ({CH2CO}-Y[NMeA][Dab]PHE[Hyp]W[Dab]W[NMeNle][NMeNle]RCG-NH2; thioether N-14)
- IC50 [1]: 4.78 to 72.9 nM
- IC50 (Human PD-L1/PD-1): 0.385 to 6.74 nM

SMILES: CCCC[C@H]1C(=O)N(C)[C@@H](CCCC)C(=O)N[C@@H](C)C(=O)N[C@H](C(=O)NCC(N)=O)CSCC(=O)N[C@@H](Cc2ccc(O)cc2)C(=O)N(C)[C@@H](C)C(=O)N[C@@H](CCN)C(=O)N2CCC[C@H]2C(=O)N[C@@H](Cc2c[nH]cn2)C(=O)N[C@@H](CCC(=O)O)C(=O)N2C[C@H](O)C[C@H]2C(=O)N[C@@H](Cc2c[nH]c3ccccc23)C(=O)N[C@@H](CO)C(=O)N[C@@H](Cc2c[nH]c3ccccc23)C(=O)N1C [Example 5087] ({CH2CO}-Y[NMeA][Dab]PHE[Hyp]WSW[NMeNle][NMeNle]ACG-NH2; thioether N-14)
- IC50 [1]: 4.78 to 72.9 nM
- IC50 (Human PD-L1/PD-1): 0.385 to 6.74 nM

SMILES: CCCC[C@H]1C(=O)N(C)[C@@H](CCCC)C(=O)N[C@@H](CCC(=O)O)C(=O)N[C@H](C(=O)NCC(N)=O)CSCC(=O)N[C@@H](Cc2ccc(O)cc2)C(=O)N(C)[C@@H](C)C(=O)N[C@@H](CC(=O)O)C(=O)N2CCC[C@H]2C(=O)N[C@@H](Cc2c[nH]cn2)C(=O)N[C@@H](CCC(N)=O)C(=O)N2C[C@H](O)C[C@H]2C(=O)N[C@@H](Cc2c[nH]c3ccccc23)C(=O)N[C@@H](CO)C(=O)N[C@@H](Cc2c[nH]c3ccccc23)C(=O)N1C [Example 5088] ({CH2CO}-Y[NMeA]DPHQ[Hyp]WSW[NMeNle][NMeNle]ECG-NH2; thioether N-14)
- IC50 [1]: 4.78 to 72.9 nM
- IC50 (Human PD-L1/PD-1): 0.385 to 6.74 nM
